From ChEMBL document CHEMBL1158671, “Microbial transformations of hypolipemic E-guggulsterone” (J Nat Prod, 1998)
Calls of active or inactive are those of the source. The rule behind the calls is not given here.

Tests used:
Shigella boydii = assay: Antibacterial activity against Shigella boydii; assay type: functional, organism-based
Escherichia coli = assay: Antibacterial activity against Escherichia coli; assay type: functional, organism-based
[1] = system: Corynebacterium diphtheriae; assay: Antibacterial activity against Corynebacterium diphtheriae; assay type: functional, organism-based
NCI-H226 = assay: Cytotoxicity against human NCI-H226 cells; assay type: functional, cell-based
Pseudomonas aeruginosa = assay: Antibacterial activity against Pseudomonas aeruginosa; assay type: functional, organism-based

In the case of `C/C=C1/C(=O)C[C@H]2[C@@H]3CCC4=CC(=O)CC[C@]4(C)[C@H]3CC[C@]12C`, the Activity (Shigella boydii) is reported as “inactive”, the Activity (Escherichia coli) is reported as “inactive” and the Activity [1] is reported as “inactive”. The Activity (NCI-H226) was “Active” and the Activity (Pseudomonas aeruginosa) was “inactive”.
For `C/C=C1/C(=O)C[C@H]2[C@@H]3[C@@H](O)CC4=CC(=O)CC[C@]4(C)[C@H]3CC[C@]12C`, the Activity (Shigella boydii) was “Active”, the Activity (Escherichia coli) was “Active” and the Activity [1] was “Active”. For the same molecule, the Activity (Pseudomonas aeruginosa) was “Active”.
